target: T1, human TRPV1 (Homo sapiens, UniProt Q8NER1); assay: Capsaicin-based assay, Protocol 2 (TRPV1/CHO cells, Fluo-4, FLIPR); type: cell-based; details: capsaicin 100 nM final, mean ± SEM, number of trials in parentheses, read-out: TRPV1 IC50 Potency, Human Capsaicin CHO (hCAP-CHO)
T1 construct: using primers designed surrounding the complete hTRPV1 open reading frame; expressed in transfected cells; host or cells: CHO-K1 cells stably transfected with pcDNA3.1(-)-hVR1 plasmid
Excerpt: The TRPV1/CHO cell line was generated as described below. […] The resulting PCR products were purified from agarose gels using Gel Band Purification Kit (GE Healthcare Bioscience) and were subcloned into pCR-Blunt vector (Invitrogen). The cloned cDNA was fully sequenced using a fluorescent dye-terminator reagent (BigDye Terminator ver3.1 Cycle Sequencing Kit, Applied Biosystems) and ABI Prism 3100 genetic analyzer (Applied Biosystems). The pCR-Blunt vector containing the hTRPV1 cDNA was subjected to restriction digestion with EcoRI. The restriction fragment was subcloned into expression vector pcDNA3.1 (-) (Invitrogen) and named pcDNA3.1 (-)-hVR1 plasmid. The sequence of the cDNA encoding TRPV1 is available at GenBank accession number AJ277028. […] The cells were transfected with the pcDNA3.1 (-)-hVR1 plasmid using FuGENE6 (Roche) according to the manufacturer's protocol. 24 hr after transfection, neomycin-resistant cells were selected using 1 mg/mL G418 (Nacalai Tesque). […] The cells expressing hTRPV1 were cultured in the growth medium supplemented with 1 mg/mL G418. […] Subsequently, the cells were loaded by incubation in 0.1 mL of wash buffer containing Fluo-4 at 3 μM final concentration. After 1 hour, the cells were washed twice with 0.2 mL wash buffer and resuspended in 0.1 mL wash buffer. The plates were then transferred to a Fluorescence Imaging Plate Reader (Molecular Devices). Fluorescence intensity was monitored for 15 seconds to establish a baseline. […] The final concentration of the compound was adjusted to range from 100 μM to 1.5625 μM. […] Data were collected over the entire time course and analyzed using Excel and the curve-fitting formula GraphPad Prism.

T1 sequence (Q8NER1 whole entry): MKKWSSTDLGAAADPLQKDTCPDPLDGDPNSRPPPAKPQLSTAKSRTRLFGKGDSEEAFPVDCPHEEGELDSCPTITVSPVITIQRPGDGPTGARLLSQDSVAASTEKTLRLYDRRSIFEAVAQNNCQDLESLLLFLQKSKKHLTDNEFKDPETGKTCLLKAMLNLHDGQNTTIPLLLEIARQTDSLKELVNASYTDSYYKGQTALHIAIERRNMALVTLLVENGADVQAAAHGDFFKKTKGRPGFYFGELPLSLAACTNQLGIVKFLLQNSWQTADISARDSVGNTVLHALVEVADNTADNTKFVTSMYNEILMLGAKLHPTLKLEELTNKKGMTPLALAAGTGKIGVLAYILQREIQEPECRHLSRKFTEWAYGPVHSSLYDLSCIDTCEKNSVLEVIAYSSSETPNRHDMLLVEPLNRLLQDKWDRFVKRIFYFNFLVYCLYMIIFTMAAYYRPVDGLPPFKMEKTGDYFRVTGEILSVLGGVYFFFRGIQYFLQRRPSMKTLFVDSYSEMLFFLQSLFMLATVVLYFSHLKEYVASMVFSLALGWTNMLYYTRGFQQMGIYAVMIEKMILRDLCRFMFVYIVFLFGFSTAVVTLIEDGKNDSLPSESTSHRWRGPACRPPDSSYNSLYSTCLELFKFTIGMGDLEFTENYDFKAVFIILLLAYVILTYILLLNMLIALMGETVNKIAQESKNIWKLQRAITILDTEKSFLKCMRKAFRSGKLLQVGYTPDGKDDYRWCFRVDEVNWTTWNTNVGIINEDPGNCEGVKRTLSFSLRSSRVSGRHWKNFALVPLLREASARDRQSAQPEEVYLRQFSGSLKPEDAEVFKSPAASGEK

Row | SMILES | IC50
1 | CN(C)CC(O)c1cnc(C2=CCN(C(=O)Nc3ccc(C(F)(F)F)cc3)CC2)c(Cl)c1 (single isomer, unassigned) [Compound L5] | > 10000 nM
2 | CC(C)c1cc(NC(=O)N2CC=C(c3ncccc3Cl)CC2)ccc1OC(F)(F)F [Compound 205] | > 25000 nM
3 | O=C(Nc1ccc(C(F)(F)F)cc1)N1CCC(F)(c2ncc(C(O)CO)cc2Cl)CC1 (stereo not shown) [Compound A1] | 7 ± 1.8 nM
4 | COc1cc(NC(=O)N2CC=C(c3ncc([C@H](O)CO)cc3Cl)CC2)ccc1C(F)(F)F [Compound A2] | 84.1 ± 11.2 nM
5 | CC1(C)CCOc2cc(NC(=O)N3CC=C(c4ncc([C@H](O)CO)cc4F)CC3)ccc21 [Compound A4] | 55.1 ± 8.6 nM
6 | O=C(Nc1ccc(S(=O)(=O)N2CCCC2)c(C(F)(F)F)c1)N1CC=C(c2ncc([C@@H](O)CO)cc2Cl)CC1 [Compound C3] | 541 ± 216 nM
7 | O=C(Nc1ccc(C(F)(F)F)c(-c2ccccc2)c1)N1CC=C(c2ncc(CO)cc2Cl)CC1 [Compound D3] | 565 ± 58.6 nM
8 | COc1cc(NC(=O)N2CCC(F)(c3ncc([C@@H](O)CO)cc3F)CC2)ccc1C(F)(F)F [Compound D5] | 133 ± 29.1 nM
9 | O=C(Nc1ccc(C(F)(F)F)cn1)N1CC=C(c2ncc(CCO)cc2Cl)CC1 [Compound D6] | 621 ± 117 nM
10 | CC(C)(C)c1ccc(NC(=O)N2CC=C(c3ncc([C@@H](O)CO)cc3F)CC2)cc1 [Compound E1] | 18.5 ± 4.9 nM
11 | COc1cc(NC(=O)N2CCC(F)(c3ncc([C@@H](O)CO)cc3Cl)CC2)ccc1C(F)(F)F [Compound E4] | 75.7 ± 12.8 nM
12 | O=C(Nc1nc2ccc(F)cc2s1)N1CCC(F)(c2ncc([C@H](O)CO)cc2F)CC1 [Compound F5] | 166 ± 24.7 nM
13 | O=C(Nc1ccc(OC(F)(F)F)c(Cl)c1)N1CC=C(c2ncc([C@H](O)CO)cc2Cl)CC1 [Compound H2] | 118 ± 22.1 nM
14 | COCc1cnc(C2=CCN(C(=O)Nc3ccc(C(F)(F)F)cn3)CC2)c(Cl)c1 [Compound H3] | 1110 ± 134 nM
15 | CC(C)S(=O)(=O)c1ccc(NC(=O)N2CC=C(c3ncc(CO)cc3Cl)CC2)cc1C(F)(F)F [Compound I3] | 1360 ± 337 nM
16 | COc1cc(C(F)(F)F)ccc1NC(=O)N1CC=C(c2ncc(CO)cc2Cl)CC1 [Compound J3] | 2940 ± 319 nM
17 | O=C(Nc1nc2ccc(Cl)cc2[nH]1)N1CCC(F)(c2ncc([C@@H](O)CO)cc2F)CC1 [Compound J5] | 1880 ± 634 nM
18 | O=C(Nc1ccc(C(F)(F)F)cn1)N1CC=C(c2ncc([C@H](O)CO)cc2F)CC1 [Compound K4] | 210 ± 19.5 nM
19 | CN1CCCc2ccc(NC(=O)N3CC=C(c4ncccc4F)CC3)cc21 [Compound K5] | 2750 ± 542 nM
20 | O=C(Nc1nc2ccc(F)cc2s1)N1CC=C(c2ncc([C@H](O)CO)cc2F)CC1 [Compound L4] | 439 ± 140 nM
21 | CS(=O)(=O)NCc1cnc(C2=CCN(C(=O)Nc3ccc(C(F)(F)F)cc3)CC2)c(Cl)c1 [Compound M4] | 471 ± 127 nM
22 | O=C(Nc1nc2ccc(Cl)cc2[nH]1)N1CCC(F)(c2ncc([C@H](O)CO)cc2Cl)CC1 [Compound N4] | 1310 ± 220 nM

Row | SMILES | IC50
23 | O=C(Nc1nc2ccc(F)cc2s1)N1CCC(F)(c2ncc([C@@H](O)CO)cc2F)CC1 [Compound N5] | 140 nM
24 | CCCOc1cc(NC(=O)N2CC=C(c3ncc([C@H](O)CO)cc3Cl)CC2)ccc1C(F)(F)F [Compound O1] | 41.1 ± 17.8 nM
25 | O=C(Nc1ccc(S(=O)(=O)C(F)(F)F)cc1)N1CC=C(c2ncc([C@@H](O)CO)cc2Cl)CC1 [Compound O3] | 46 ± 11.3 nM
26 | O=C(Nc1ccc(C(F)(F)F)cc1)N1CC=C(c2ncc(C(CO)CO)cc2Cl)CC1 [Compound O4, 4-(3-chloro-5-(1,3-dihydroxypropan-2-yl)pyridin-2-yl)-N-(4-(trifluoromethyl)phenyl)-5,6-dihydropyridine-1(2H)-carboxamide] | 1520 ± 339 nM
27 | Cc1cc2nc(NC(=O)N3CC=C(c4ncc([C@H](O)CO)cc4Cl)CC3)sc2cc1C [Compound O5] | 244 nM
28 | O=C(Nc1ccc(S(=O)(=O)C(F)(F)F)cc1)N1CC=C(c2ncc([C@H](O)CO)cc2F)CC1 [Compound P1] | 50.5 ± 9.5 nM
29 | O=C(Nc1nc2ccc(Cl)cc2[nH]1)N1CC=C(c2ncc([C@H](O)CO)cc2Cl)CC1 [Compound P4] | 1810 ± 302 nM
30 | CC1(c2ncc([C@@H](O)CO)cc2F)CCN(C(=O)Nc2ccc(C(F)(F)F)c(Cl)c2)CC1 [Compound P5] | 49.5 nM
31 | CC1(c2ncc([C@H](O)CO)cc2F)CCN(C(=O)Nc2ccc(C(F)(F)F)c(Cl)c2)CC1 [Compound Q3] | 14.3 ± 1.3 nM
32 | O=C(Nc1nc2ccc(Cl)cc2[nH]1)N1CC=C(c2ncc([C@@H](O)CO)cc2Cl)CC1 [Compound Q4] | 2900 ± 302 nM
33 | O=C(Nc1nc2ccc(F)cc2s1)N1CC=C(c2ncc([C@H](O)CO)cc2Cl)CC1 [Compound R1] | 51 ± 18.8 nM
34 | Cc1cc(NC(=O)N2CCC(F)(c3ncc([C@H](O)CO)cc3F)CC2)ccc1OC(F)(F)F [Compound R3] | 15.5 ± 3.5 nM
35 | O=C(Nc1nc2ccc(Cl)cc2[nH]1)N1CCC(F)(c2ncc([C@H](O)CO)cc2F)CC1 [Compound R4] | 3280 ± 761 nM
36 | Cc1cc(NC(=O)N2CC=C(c3ncc([C@@H](O)CO)cc3Cl)CC2)ccc1OC(F)(F)F [Compound R5] | 346 nM
37 | CN(C(=O)N1CC=C(c2ncc([C@H](O)CO)cc2Cl)CC1)c1ccc(C(F)(F)F)cc1 [Compound S4] | 7030 ± 2060 nM
38 | O=C(Nc1ccc(Cl)c(C(F)(F)F)c1)N1CC=C(c2ncc([C@H](O)CO)cc2Cl)CC1 [Compound T2] | 226 ± 69.3 nM
39 | O=C(Nc1ccc(C(F)(F)F)cc1)N1CCC(F)(c2ncc(C(O)(CO)CO)cc2Cl)CC1 [Compound T5] | 451 ± 92.4 nM
40 | O=C(Nc1ccc(C(F)(F)F)c(F)c1)N1CCC(F)(c2ncc([C@@H](O)CO)cc2Cl)CC1 [Compound U5] | 19.9 ± 6.9 nM
41 | COc1cc(NC(=O)N2CCC(F)(c3ncc([C@H](O)CO)cc3Cl)CC2)ccc1C(F)(F)F [Compound V3] | 34 ± 9.2 nM
42 | O=C(Nc1ccc(C(F)(F)F)cc1)N1CCC(F)(c2ncc([C@@H](O)CO)cc2F)CC1 [Compound X4] | 38.4 ± 8 nM
43 | COc1cc(NC(=O)N2CC=C(c3ncc([C@@H](O)CO)cc3Cl)CC2)ccc1C(F)(F)F [Compound X5] | 230 ± 65.5 nM

From patent US20090170867A1, “TRPV1 ANTAGONISTS INCLUDING SULFONAMIDE SUBSTITUENT AND USES THEREOF” (Shionogi & Co., Ltd., priority 2007, published 2009)
